Laboratory results from patent publication US20160313301A1, “METHOD FOR PREDICTING ANTITUMOR EFFICACY OF HSP90 INHIBITOR IN CANCER TREATMENT” (NIPPON KAYAKU KABUSHIKI KAISHA, priority 2013, published 2016).

Tests used:
Assay type in all cases: in vivo
[1] = tested on: human ovarian cancer cells OVCAR-3; assay: Anti-tumor test in mice transplanted subcutaneously with tumor (OVCAR-3)
[2] = tested on: human ovarian cancer cells TOGY-18; assay: Anti-tumor test in mice transplanted subcutaneously with tumor (TOGY-18); details: TOGY-18 s.c. in mice; 40 mg/kg tail vein three times at 4 day intervals
Method: (§1) Human ovarian cancer cell lines OC-10-JCK, OC-11-JCK, and TOGY-18, and a human breast cancer cell line MC-19-JCK were obtained from Central Institute for Experimental Animals. Cryopreserved tumor pieces were thawed, and then OC-10-JCK, OC-11-JCK, and MC-19-JCK were transplanted subcutaneously to SCID mice, while TOGY-18 was transplanted subcutaneously to nude mice. After the tumors were grown, the tumors were removed and cut into tumor pieces. The tumor pieces were transplanted subcutaneously to SCID mice or nude mice with trocars. The tumors were maintained by repeated transplantation in the same manner as described above to prepare tumors to be transplanted. Human ovarian cancer cell lines ES-2, SK-OV-3, OV-90, and TOV-21G, and a human lung cancer cell line NCI-H1975 were obtained from American Type Culture Collection (ATCC). The SK-OV-3 and NCI-H1975 cell lines were grown in recommended culture media, of which about 1×10^7 cells were suspended into HBSS and then injected subcutaneously to SCID mice. After the cells formed tumors, the tumors were removed and cut into tumor pieces. The tumor pieces were transplanted subcutaneously to SCID mice with trocars. The tumors were maintained by repeated transplantation in the same manner as described above to prepare tumors to be transplanted. […]

[3] = tested on: human breast cancer cells JIMT-1; assay: Anti-tumor test in mice transplanted subcutaneously with tumor (JIMT-1); details: JIMT-1 s.c. in mice; 40 mg/kg three times at 7 day intervals
Method: as §1

CC(C)c1cc(-c2n[nH]c(=O)n2-c2ccc(CN3CCN(C)CC3)cc2)c(O)cc1O [A-1, 5-(2,4-dihydroxy-5-isopropyl-phenyl)-4-[4-(4-methyl-piperazin-1-ylmethyl)-phenyl]-2,4-dihydro-[1,2,4]triazol-3-one]
T/C % (lowest value from the beginning to the 21st day of administration) ([1]; OVCAR-3 s.c. in NOD/SCID mice, 40 mg/kg tail vein three times at 4 day intervals): 34.9%
anti-tumor effect (in words) ([1]; OVCAR-3 s.c. in mice): relatively highly effective
T/C % (lowest value from the beginning to the 21st day of administration) [2]: 45.2%
T/C % (lowest value from the beginning to the 21st day of administration) [3]: 34.9%
